# Assays:
# Assay type in all cases: in vivo
# Conditions in all cases: 600 g copolymer where named, 300 l/ha, 21 days at 20° C.
# [1] = system: Echinochloa crus-galli (ECHCG); experiment: Greenhouse herbicidal action of glyphosate test formulations
# Protocol: (§1) Test formulations were prepared with in each case 200 g, 300 g and 500 g of glyphosate and in each case 600 g of the copolymers I to V in 300 l of water. The data by weight refer to 100% active ingredient and 100% adjuvant. An amount of the formulation corresponding to the ratio 300 l/ha was applied in a greenhouse to the plant species Abutilon theophrasti (ABUTH), Sesbania exaltata (SEBEX), Pharbitis purpurea (PHBPU), Galium aparine (GALAP), Amaranthus retroflexus (AMARE) and Echinochloa crus-galli (ECHCG), and, after 21 days at 20° C., the plant growth was assessed according to a % scale.
# (§2) 0% means no effect and 100% means complete destruction of the types of plant.
# [2] = system: Amaranthus retroflexus (AMARE); experiment: as above
# Protocol: as §1, §2
# Galium aparine (GALAP) = experiment: as above
# Protocol: as §1, §2
# [3] = system: Pharbitis purpurea (PHBPU); experiment: as above
# Protocol: as §1, §2
# [4] = system: Sesbania exaltata (SEBEX); experiment: as above
# Protocol: as §1, §2
# [5] = system: Abutilon theophrasti (ABUTH); experiment: as above
# Protocol: as §1, §2
# [6] = system: SEBEX, AMARE, GALAP, ABUTH, ECHCG, PHBPU; experiment: Greenhouse herbicidal action, total over the six plant species
# Protocol: as §1, §2
compound,measurement,setting,value
"O=C(O)CNCP(=O)(O)O [Glyphosate, N-phosphonomethylglycine]",herbicidal action ECHCG (plant growth assessed on % scale),[1]; glyphosate 200 g/ha,15%
same,herbicidal action ECHCG (plant growth assessed on % scale),[1]; glyphosate 300 g/ha,20%
same,herbicidal action ECHCG (plant growth assessed on % scale),[1]; glyphosate 500 g/ha,40%
same,herbicidal action AMARE (plant growth assessed on % scale),[2]; glyphosate 200 g/ha,20%
same,herbicidal action AMARE (plant growth assessed on % scale),[2]; glyphosate 300 g/ha,45%
same,herbicidal action AMARE (plant growth assessed on % scale),[2]; glyphosate 500 g/ha,65%
same,herbicidal action GALAP (plant growth assessed on % scale),Galium aparine (GALAP); glyphosate 200 g/ha,5%
same,herbicidal action GALAP (plant growth assessed on % scale),Galium aparine (GALAP); glyphosate 300 g/ha,20%
same,herbicidal action GALAP (plant growth assessed on % scale),Galium aparine (GALAP); glyphosate 500 g/ha,40%
same,herbicidal action PHBPU (plant growth assessed on % scale),[3]; glyphosate 200 g/ha,10%
same,herbicidal action PHBPU (plant growth assessed on % scale),[3]; glyphosate 300 g/ha,20%
same,herbicidal action PHBPU (plant growth assessed on % scale),[3]; glyphosate 500 g/ha,40%
same,herbicidal action SEBEX (plant growth assessed on % scale),"[4]; glyphosate 200 g/ha, 0% no effect, 100% complete destruction",10%
same,herbicidal action SEBEX (plant growth assessed on % scale),[4]; glyphosate 300 g/ha,15%
same,herbicidal action SEBEX (plant growth assessed on % scale),[4]; glyphosate 500 g/ha,30%
same,herbicidal action ABUTH (plant growth assessed on % scale),[5]; glyphosate 200 g/ha,0%
same,herbicidal action ABUTH (plant growth assessed on % scale),[5]; glyphosate 300 g/ha,10%
same,herbicidal action ABUTH (plant growth assessed on % scale),[5]; glyphosate 500 g/ha,15%
same,herbicidal action Total,[6]; glyphosate 200 g/ha,10%
same,herbicidal action Total,[6]; glyphosate 300 g/ha,22%
same,herbicidal action Total,[6]; glyphosate 500 g/ha,38%
